Measured values reported in patent US9896445B2, “Heterocyclic inhibitors of ERK1 and ERK2 and their use in the treatment of cancer” (Asana Biosciences, LLC, priority 2015, dated 2018).

Legend:
ERK1 = target: T1, ERK1 (Homo sapiens, UniProt P27361); assay: ERK1 HTRF (biochemical) assay; conditions: HTRF
T1 construct: purchased Jubilant Biosys
Protocol: (§1) ERK1 and ERK2 HTRF (Biochemical) Assays
These assays employed a homogeneous time resolved fluorescence (HTRF) technique. […] The plate was incubated at room temperature for 60 min with shaking. […] The IC50 values (half maximal inhibitory concentration values) were subsequently determined using a sigmoidal dose-response curve (variable slope) in GraphPad Prism® 5 software.

ERK2 = target: T2, ERK2 (Homo sapiens, UniProt P28482); assay: ERK2 HTRF (biochemical) assay; conditions: HTRF
T2 construct: purchased Jubilant Biosys
T2 sequence (P28482 whole entry): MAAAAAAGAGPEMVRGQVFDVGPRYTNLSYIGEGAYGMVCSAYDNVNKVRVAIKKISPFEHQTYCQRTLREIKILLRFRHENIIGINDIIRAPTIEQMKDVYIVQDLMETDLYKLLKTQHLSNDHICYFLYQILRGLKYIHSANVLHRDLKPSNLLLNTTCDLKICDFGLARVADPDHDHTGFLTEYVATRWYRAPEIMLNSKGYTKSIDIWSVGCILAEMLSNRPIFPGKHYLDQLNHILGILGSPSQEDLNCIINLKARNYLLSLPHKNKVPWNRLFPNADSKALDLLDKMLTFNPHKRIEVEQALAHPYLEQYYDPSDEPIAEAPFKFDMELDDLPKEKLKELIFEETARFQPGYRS
Protocol: as §1
These assays employed a homogeneous time resolved fluorescence (HTRF) technique. The compounds were serially diluted by half-log with concentrations ranging from 0.0005 to 10 uM in the assay buffer (50 mM Tris pH=7.5, 1 mM EGTA, 2 mM DTT, 10 mM MgCl2, 0.1% Tween-20) and 20 uL of substrate-ATP mix [1 uM Biotin-LC-Myelin Basic Protein (MBP) derivatized Peptide (Anaspec)-24 uM ATP (Sigma)] was added to each well of the assay plate. Then 10 uL of enzyme mix [25 nM ERK1 or ERK2 (Jubilant Biosys) in assay buffer] was added to each well. The plate was incubated at room temperature for 60 min with shaking. The HTRF mix [625 nM LANCE® Ultra Europium-anti-phospho-MBP (Perkin Elmer) and 2 nM Phycolink® Streptavidin-Allophycocyanin (SA-APC) (Prozyme) in HTRF buffer (50 mM Tris-HCl pH=7.5, 100 mM NaCl, 0.1% BSA, 0.05% Tween20, 0.5 mM EDTA)] was prepared and 75 uL of this mix was added to the HTRF plate. After incubation for 60 min at room temperature, 10 uL of the reaction mixture was transferred to the HTRF assay plate and incubated for 45 min at room temperature with shaking. Plate was read using Pherastar in HTRF mode (excitation 337 nm, emission 665 & 620 nm). The IC50 values (half maximal inhibitory concentration values) were subsequently determined using a sigmoidal dose-response curve (variable slope) in GraphPad Prism® 5 software.

T1 sequence (P27361 whole entry): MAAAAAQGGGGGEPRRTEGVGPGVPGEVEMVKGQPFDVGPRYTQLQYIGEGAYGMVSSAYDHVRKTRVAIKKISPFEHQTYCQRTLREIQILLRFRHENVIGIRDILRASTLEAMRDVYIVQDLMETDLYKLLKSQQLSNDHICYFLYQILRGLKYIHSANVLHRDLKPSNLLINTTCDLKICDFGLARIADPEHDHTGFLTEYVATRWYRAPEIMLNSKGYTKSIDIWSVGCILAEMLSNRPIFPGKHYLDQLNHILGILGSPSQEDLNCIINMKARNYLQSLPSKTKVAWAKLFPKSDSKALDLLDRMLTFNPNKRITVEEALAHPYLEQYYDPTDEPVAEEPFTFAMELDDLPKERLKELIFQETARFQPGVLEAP

IC50 (ERK1) [nM] | IC50 (ERK2) [nM] | Compound
< 50 | ≤ 50 | Cc1cnc(NC2CCOCC2)nc1-n1cnc(C(=O)NC(CN)c2ccc(Cl)s2)c1 (single isomer, unassigned; enantiomer #2) [Example 291, N-(2-amino-1-(5-chlorothiophen-2-yl)ethyl)-1-(5-methyl-2-((tetrahydro-2H-pyran-4-yl)amino)-pyrimidin-4-yl)-1H-imidazole-4-carboxamide (enantiomer #2)]
< 50 | 50 to 100 | Cc1cnc(Nc2ccccc2Cl)nc1-n1cc(NC(=O)N[C@H](CO)c2cccc(Cl)c2)cn1 [Compound 2]
50 to 100 | 50 to 100 | Cc1cnc(NC2CC2)nc1-n1cc(NC(=O)N[C@H](CO)c2cccc(Cl)c2)cn1 [Compound 3, (S)-1-(1-(3-chlorophenyl)-2-hydroxyethyl)-3-(1-(2-(cyclopropyl-amino)-5-methyl-pyrimidin-4-yl)-1H-pyrazol-4-yl)urea]
> 2500 | > 2500 | O=C(Nc1cnn(-c2ccnc(Nc3ccccc3Cl)n2)c1)N[C@@H](CO)c1ccccc1 [Compound 4, (R)-1-(1-(2-((2-chlorophenyl)amino)pyrimidin-4-yl)-1H-pyrazol-4-yl)-3-(2-hydroxy-1-phenylethyl)urea]
100 to 500 | – | CC(NC(=O)Nc1cnn(-c2ccnc(Nc3ccccc3Cl)n2)c1)c1cccc(Cl)c1 (centres unmarked) [Compound 5, 1-(1-(2-((2-chlorophenyl)amino)pyrimidin-4-yl)-1H-pyrazol-4-yl)-3-(1-(3-chloro-phenyl)ethyl)urea]
< 50 | ≤ 50 | O=C(Nc1cnn(-c2ccnc(Nc3ccccc3)n2)c1)N[C@H](CO)c1cccc(Cl)c1 [Compound 12, (S)-1-(1-(3-chlorophenyl)-2-hydroxyethyl)-3-(1-(2-(phenyl-amino)pyrimidin-4-yl)-1H-pyrazol-4-yl)urea]
100 to 500 | 100 to 500 | CC(C)C[C@H](CO)Nc1nccc(-n2cc(NC(=O)N[C@H](CO)c3cccc(Cl)c3)cn2)n1 [Compound 13, 1-((S)-1-(3-chlorophenyl)-2-hydroxyethyl)-3-(1-(2-(((R)-1-hydroxy-4-methylpentan-2-yl)amino)pyrimidin-4-yl)-1H-pyrazol-4-yl)urea]
100 to 500 | 100 to 500 | O=C(Nc1cnn(-c2ccnc(N[C@H]3CC[C@H](O)CC3)n2)c1)N[C@H](CO)c1cccc(Cl)c1 [Compound 14, 1-((S)-1-(3-chlorophenyl)-2-hydroxyethyl)-3-(1-(2-((trans-4-hydroxycyclohexyl)amino)pyrimidin-4-yl)-1H-pyrazol-4-yl)urea]
100 to 500 | 50 to 100 | O=C(Nc1cnn(-c2ccnc(NC3CC3)n2)c1)NC(CO)c1cccc(Cl)c1 (centres unmarked) [Compound 16, 1-(1-(3-chlorophenyl)-2-hydroxyethyl)-3-(1-(2-(cyclopropyl-amino)pyrimidin-4-yl)-1H-pyrazol-4-yl)urea]
< 50 | 100 to 500 | CN(C(=O)Nc1cnn(-c2ccnc(NC3CC3)n2)c1)[C@H](CO)c1ccccc1 [Compound 18, (S)-3-(1-(2-(cyclopropylamino)pyrimidin-4-yl)-1H-pyrazol-4-yl)-1-(2-hydroxy-1-phenylethyl)-1-methylurea]
< 50 | ≤ 50 | O=C(Nc1cnn(-c2ccnc(Nc3ccc(F)cc3Cl)n2)c1)N[C@H](CO)c1cccc(Cl)c1 [Compound 20, (S)-1-(1-(2-((2-chloro-4-fluorophenyl)amino)pyrimidin-4-yl)-1H-pyrazol-4-yl)-3-(1-(3-chlorophenyl)-2-hydroxyethyl)urea]
< 50 | ≤ 50 | O=C(Nc1cnn(-c2ccnc(Nc3ccc4c(c3)OCO4)n2)c1)N[C@H](CO)c1cccc(Cl)c1 [Compound 21, (S)-1-(1-(2-(benzo[d][1,3]dioxol-5-ylamino)-pyrimidin-4-yl)-1H-pyrazol-4-yl)-3-(1-(3-chlorophenyl)-2-hydroxyethyl)urea]
100 to 500 | 50 to 100 | CN1CCN(c2ccc(Nc3nccc(-n4cc(NC(=O)N[C@H](CO)c5cccc(Cl)c5)cn4)n3)cc2)CC1 [Compound 22, (S)-1-(1-(3-chlorophenyl)-2-hydroxyethyl)-3-(1-(2-((4-(4-methylpiperazin-1-yl)-phenyl)amino)pyrimidin-4-yl)-1H-pyrazol-4-yl)urea]
< 50 | – | Cc1cnc(Nc2ccc(F)cc2Cl)nc1-n1cc(NC(=O)N[C@H](CO)c2ccc(F)c(Cl)c2)cn1 [Compound 26, (S)-1-(1-(3-chloro-4-fluorophenyl)-2-hydroxyethyl)-3-(1-(2-((2-chloro-4-fluorophenyl)amino)-5-methyl-pyrimidin-4-yl)-1H-pyrazol-4-yl)urea]
50 to 100 | 50 to 100 | Cc1cnc(NC2CC2)nc1-n1cc(NC(=O)NC(CO)c2cccc(Cl)c2)cn1 (centres unmarked) [Compound 28, 1-(1-(3-chloro-phenyl)-2-hydroxy-ethyl)-3-(1-(2-(cyclopropyl-amino)-5-methylpyrimidin-4-yl)-1H-pyrazol-4-yl)urea]
< 50 | ≤ 50 | Cc1cnc(Nc2ccc(F)cc2Cl)nc1-n1ccc(C(=O)N[C@H](CO)c2cccc(Cl)c2)c1 [Compound 29, (S)-1-(2-((2-Chloro-4-fluorophenyl)amino)-5-methylpyrimidin-4-yl)-N-(1-(3-chlorophenyl)-2-hydroxyethyl)-1H-pyrrole-3-carboxamide]

Continued, compound first:

Compound | IC50 (ERK1) [nM] | IC50 (ERK2) [nM]
Cc1cnc(NC2CCOCC2)nc1-n1cnc(C(=O)NC(CN)c2cccc(Cl)c2)c1 (racemic) [Compound 225, N-(2-Amino-1-(3-chlorophenyl)ethyl)-1-(5-methyl-2-((tetrahydro-2H-pyran-4-yl)amino)pyrimidin-4-yl)-1H-imidazole-4-carboxamide] | < 50 | ≤ 50
Cc1cnc(NC2CCOCC2)nc1-n1cnc(C(=O)N[C@@H](CN)c2cccc(Cl)c2)c1 (single isomer, unassigned) [Compound 225b] | < 50 | ≤ 50
Cc1cnc(Nc2ccc(F)cc2)cc1-n1cnc(C(=O)NC(CN)c2ccccc2)c1 (single isomer, unassigned) [Compound 228, N-(2-amino-1-phenylethyl)-1-(2-((4-fluorophenyl)-amino)-5-methyl-pyridin-4-yl)-1H-imidazole-4-carboxamide] | 100 to 500 | 100 to 500
Cc1cnc(NC2CCOCC2)nc1-n1cnc(C(=O)NC(c2cccc(Cl)c2)C(C)O)c1 (single isomer, unassigned) [Compound 252, N-(1-(3-chlorophenyl)-2-hydroxypropyl)-1-(5-methyl-2-((tetrahydro-2H-pyran-4-yl)amino)-pyrimidin-4-yl)-1H-imidazole-4-carboxamide] | < 50 | ≤ 50
Cc1cnc(NC2CCOCC2)nc1-n1cnc(C(=O)NC(CN)c2ccc(Cl)s2)c1 (single isomer, unassigned; enantiomer #1) [Example 290, N-(2-amino-1-(5-chlorothiophen-2-yl)ethyl)-1-(5-methyl-2-((tetrahydro-2H-pyran-4-yl)amino)-pyrimidin-4-yl)-1H-imidazole-4-carboxamide (enantiomer #1)] | < 50 | ≤ 50
O=C(Nc1cnn(-c2ccnc(Nc3ccccc3Cl)n2)c1)N[C@H](CO)c1cccc(Cl)c1 [Compound 1, (S)-1-(1-(3-chlorophenyl)-2-hydroxyethyl)-3-(1-(2-((2-chloro-phenyl)amino)pyrimidin-4-yl)-1H-pyrazol-4-yl)urea] | < 50 | ≤ 50
O=C(Nc1cnn(-c2ccnc(NC3CC3)n2)c1)N[C@H](CO)c1cccc(Cl)c1 [Compound 6, (S)-1-(1-(3-chlorophenyl)-2-hydroxyethyl)-3-(1-(2-(cyclopropyl-amino)pyrimidin-4-yl)-1H-pyrazol-4-yl)urea] | < 50 | ≤ 50
O=C(Nc1cnn(-c2ccnc(Nc3ccccc3Cl)n2)c1)N[C@H](CO)c1ccccc1 [Compound 7, (S)-1-(1-(2-((2-chlorophenyl)amino)pyrimidin-4-yl)-1H-pyrazol-4-yl)-3-(2-hydroxy-1-phenylethyl)urea] | 50 to 100 | 50 to 100
COc1cc(N2CCN(C(C)=O)CC2)ccc1Nc1nccc(-n2cc(NC(=O)N[C@H](CO)c3cccc(Cl)c3)cn2)n1 [Compound 15, (S)-1-(1-(2-((4-(4-acetylpiperazin-1-yl)-2-methoxy-phenyl)amino)pyrimidin-4-yl)-1H-pyrazol-4-yl)-3-(1-(3-chlorophenyl)-2-hydroxyethyl)urea] | 50 to 100 | –
Cc1cnc(Nc2cccnc2)nc1-n1cc(NC(=O)N[C@H](CO)c2cccc(Cl)c2)cn1 [Compound 23, (S)-1-(1-(3-chlorophenyl)-2-hydroxyethyl)-3-(1-(5-methyl-2-(pyridin-3-yl-amino)pyrimidin-4-yl)-1H-pyrazol-4-yl)urea] | < 50 | ≤ 50
Cc1cnc(Nc2ccc(F)cc2Cl)nc1-n1cc(NC(=O)N[C@H](CO)c2cccc(Cl)c2)cn1 [Compound 25, (S)-1-(1-(2-((2-chloro-4-fluoro-phenyl)amino)-5-methylpyrimidin-4-yl)-1H-pyrazol-4-yl)-3-(1-(3-chloro-phenyl)-2-hydroxy-ethyl)urea] | < 50 | –
